In patent US10538532B2, “Hepatitis B antiviral agents” (ENANTA PHARMACEUTICALS, INC., priority 2016, dated 2020):

Experiments:
[1] = Compound toxicity, ATPLite total ATP levels; assay type: cell-based; settings: human, HepAD38 cells, three days after compound addition, concentration reducing total ATP levels by 50% relative to no drug controls
Procedure: Methods: HepAD38 cells are maintained as previously reported (Ladner et al, Antimicrob. Agents Chemother. 1997, […], 1715). Briefly, cells are passaged upon attaining confluency in DMEM/F12 media in the presence of 10% FBS, Penn/Strep, 250 μg/mL G418, and 1 ug/ml tetracycline. Novel compounds are screened by first washing cells three times with PBS to remove tetracycline, and plating in 96 well plates at 35,000 cells/well. Compounds dissolved in DMSO are then diluted 1:200 into wells containing cells. Five days after compound addition, material is harvested for analysis. For an extended 8 day analysis, cells are plated and treated as described above, but media and compound are refreshed on d2 and d5 post initial treatment.
Compound toxicity is evaluated by seeding cells at 15,000 cells/well and treating with compound as described above.

[2] = system: HBV; assay: HepAD38 antiviral assay: reduction of viral product accumulation (virion DNA by qPCR, HBsAg or HBeAg by ELISA); assay type: cell-based, hepatitis B virus; settings: Hepatitis B virus, HePAD38, 120 h, HepAD38 cells, five days after compound addition; concentration reducing viral product accumulation by 50% relative to no drug controls; read-out: HepAD38 EC50
Outline: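 HepAD38 cells were washed free of tetracycline, plated at 35,000 cells/well and given compounds diluted 1:200 from DMSO. After 5 days, or 8 days with media and compound refreshed on d2 and d5, virion DNA was measured by qPCR and HBsAg or HBeAg by ELISA. EC50 is the concentration giving 50% reduction of viral product versus no-drug controls.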

With `O=C(Nc1cc(F)c(F)c(F)c1)c1ccc(Cl)c(S(=O)(=O)[C@]2(F)CC[C@H](O)CC2)c1` [Example 8] the CC50 at 3 days ([1]; class symbols) was 10000 to 25000 nM and the EC50 [2] was 100 to 400 nM.

`CS(=O)(=O)NC1CC2CC[C@@H](C1)[C@H]2S(=O)(=O)c1cc(C(=O)Nc2cc(F)c(F)c(F)c2)ccc1Cl` (some centres unmarked) [Example 299] showed a CC50 at 3 days ([1]; class symbols) of over 25000 nM and an EC50 [2] of under 100 nM.

`C=CCOC(=O)OC[C@]1(O)CC2CC[C@@H](C1)[C@H]2S(=O)(=O)c1cc(C(=O)Nc2cc(F)c(F)c(F)c2)ccc1Cl` [Example 290] showed a CC50 at 3 days ([1]; class symbols) of over 25000 nM and an EC50 [2] of under 100 nM.

Work on `O=C1NC[C@@]2(CC3CC[C@@H](C2)[C@H]3S(=O)(=O)c2cc(C(=O)Nc3cc(F)c(F)c(F)c3)ccc2Cl)O1` [Example 306] yielded a CC50 at 3 days ([1]; numeric bounds) of over 12500 nM and an EC50 [2] of under 100 nM.

For `N#C[C@]1(CO)CC2CC[C@@H](C1)[C@H]2S(=O)(=O)c1cc(C(=O)Nc2cc(F)c(F)c(F)c2)ccc1Cl` [Example 292], the CC50 at 3 days ([1]; class symbols) was 10000 to 25000 nM and the EC50 [2] was under 100 nM.

For `O=C(Nc1cc(F)c(F)c(F)c1)c1ccc(Cl)c(S(=O)(=O)[C@H]2C3CC[C@H]2C[C@@](O)(CNS(=O)(=O)C2CC2)C3)c1` [Example 279], the CC50 at 3 days ([1]; class symbols) was over 25000 nM and the EC50 [2] was 100 to 400 nM.

Work on `[N-]=[N+]=NC[C@@]1(O)CC2CC[C@@H](C1)[C@H]2S(=O)(=O)c1cc(C(=O)Nc2cc(F)c(F)c(F)c2)ccc1Cl` [Example 271] yielded a CC50 at 3 days ([1]; numeric bounds) of over 12500 nM and an EC50 [2] of under 100 nM.

In the case of `CC(=O)NC[C@@]1(O)CC2CC[C@@H](C1)[C@H]2S(=O)(=O)c1cc(C(=O)Nc2cc(F)c(F)c(F)c2)ccc1Cl` [Example 280], the CC50 at 3 days ([1]; class symbols) is reported as over 25000 nM and the EC50 [2] is reported as 100 to 400 nM.

`CC(=O)[C@]1(O)CC2CC[C@@H](C1)[C@H]2S(=O)(=O)c1cc(C(=O)Nc2cc(F)c(F)c(F)c2)ccc1Cl` [Example 150] gave a CC50 at 3 days ([1]; class symbols) of 10000 to 25000 nM and an EC50 [2] of under 100 nM.

Work on `O=C(Nc1cc(F)c(F)c(F)c1)c1ccc(Cl)c(S(=O)(=O)[C@H]2CC3CCC(C2)[C@]3(O)c2ccncc2)c1` [Example 332] yielded a CC50 at 3 days ([1]; class symbols) of 10000 to 25000 nM and an EC50 [2] of under 100 nM.

In the case of `NC(=O)OC[C@@H]1CC2CC[C@@H](C1)[C@H]2S(=O)(=O)c1cc(C(=O)Nc2cc(F)c(F)c(F)c2)ccc1Cl` [Example 272], the CC50 at 3 days ([1]; numeric bounds) is reported as over 12500 nM and the EC50 [2] is reported as under 100 nM.

With `O=C(Nc1cc(F)c(F)c(F)c1)c1ccc(Cl)c(S(=O)(=O)[C@H]2CC[C@H](O)CC2)c1` [Example 3] the CC50 at 3 days ([1]; class symbols) was over 25000 nM and the EC50 [2] was 100 to 400 nM.

Compound `O=C(Nc1cc(F)c(F)c(F)c1)c1ccc(Cl)c(S(=O)(=O)[C@H]2C3CC[C@H]2C[C@@H](c2ncc[nH]2)C3)c1` [Example 283] has a CC50 at 3 days ([1]; class symbols) of under 10000 nM and an EC50 [2] of 100 to 400 nM.

Compound `O=C(Nc1cc(F)c(F)c(F)c1)c1ccc(Cl)c(S(=O)(=O)Cc2cccnc2)c1` [Example 45] has a CC50 at 3 days ([1]; class symbols) of over 25000 nM and an EC50 [2] of 100 to 400 nM.

In the case of `CS(=O)(=O)NC[C@]1(O)C2CCC1C[C@@H](S(=O)(=O)c1cc(C(=O)Nc3cc(F)c(F)c(F)c3)ccc1Cl)C2` [Example 259], the CC50 at 3 days ([1]; numeric bounds) is reported as over 12500 nM and the EC50 [2] is reported as under 100 nM.

Work on `C[C@]1(O)CC2CC[C@@H](C1)[C@H]2S(=O)(=O)c1cc(C(=O)Nc2cc(F)c(F)c(F)c2)ccc1Cl` [Example 282] yielded a CC50 at 3 days ([1]; class symbols) of over 25000 nM and an EC50 [2] of under 100 nM.
